Measurements from the NIST ThermoML archive (doi:10.1016/j.jct.2016.01.019).
± gives the expanded uncertainty stated by the source.

Assay: refractive index (other wavelength) (dimensionless); xn = mol fraction of the nth substance listed
Conditions: 94.64 kPa, Liquid, Standard Abbe refractometry, x1 = 1

CC(O)CO (stereo not drawn) [1,2-propanediol] + OCCCO
refractive index
Conditions	Wavelength=404.7 nm	Wavelength=435.8 nm	Wavelength=486.1 nm	Wavelength=546.1 nm	Wavelength=587.6 nm	Wavelength=632.8 nm	Wavelength=644 nm	Wavelength=706.5 nm
293.15 K	1.445 ± 0.002	1.44204 ± 0.002	1.43722 ± 0.002	1.43406 ± 0.002	1.43227 ± 0.002	1.43023 ± 0.002	1.43008 ± 0.002	1.42866 ± 0.002
298.15 K	1.4429 ± 0.002	1.43967 ± 0.002	1.43566 ± 0.002	1.43245 ± 0.002	1.4305 ± 0.002	1.429 ± 0.002	1.4289 ± 0.002	1.42701 ± 0.002
303.15 K	1.44135 ± 0.002	1.43785 ± 0.002	1.43417 ± 0.002	1.43096 ± 0.002	1.42927 ± 0.002	1.42774 ± 0.002	1.42734 ± 0.002	1.42571 ± 0.002
308.15 K	1.43955 ± 0.002	1.43622 ± 0.002	1.43239 ± 0.002	1.42919 ± 0.002	1.42752 ± 0.002	1.426 ± 0.002	1.42565 ± 0.002	1.42397 ± 0.002
313.15 K	1.43771 ± 0.002	1.43437 ± 0.002	1.43055 ± 0.002	1.42738 ± 0.002	1.42572 ± 0.002	1.4242 ± 0.002	1.42386 ± 0.002	1.42219 ± 0.002
318.15 K	1.43584 ± 0.002	1.43252 ± 0.002	1.42875 ± 0.002	1.42557 ± 0.002	1.42392 ± 0.002	1.42243 ± 0.002	1.42208 ± 0.002	1.42043 ± 0.002
